The record followed here is ChEMBL document CHEMBL1134849, “Substituted acrylamides as factor Xa inhibitors: improving bioavailability by P1 modification” (Bioorg Med Chem Lett, 2002).

The IC50 is the midpoint of a concentration-inhibition curve. A lower IC50 goes with greater potency in that assay. One may read the clearance as a measure of how efficiently the substance is removed, as volume per time. Read a low clearance as inefficient removal. In general, bioavailability refers to dose-corrected exposure relative to a reference, in per cent. Low readings indicate poor availability, high ones good availability. In general, half-life refers to the time needed for the level to fall by half in the phase considered. By Ki is commonly meant a dissociation constant, usually derived from enzyme kinetics or from competition with a known ligand.

The target in data set [1] is T1, Coagulation factor X (Homo sapiens, UniProt P00742). Nature of the data set: Concentration required for inhibition of Coagulation factor X.
T1 sequence (P00742 41-179 limits assumed): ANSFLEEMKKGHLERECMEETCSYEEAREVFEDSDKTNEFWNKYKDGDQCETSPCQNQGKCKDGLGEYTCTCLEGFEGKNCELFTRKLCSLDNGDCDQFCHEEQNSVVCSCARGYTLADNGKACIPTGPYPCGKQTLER
T1 sequence (P00742 235-488 limits assumed): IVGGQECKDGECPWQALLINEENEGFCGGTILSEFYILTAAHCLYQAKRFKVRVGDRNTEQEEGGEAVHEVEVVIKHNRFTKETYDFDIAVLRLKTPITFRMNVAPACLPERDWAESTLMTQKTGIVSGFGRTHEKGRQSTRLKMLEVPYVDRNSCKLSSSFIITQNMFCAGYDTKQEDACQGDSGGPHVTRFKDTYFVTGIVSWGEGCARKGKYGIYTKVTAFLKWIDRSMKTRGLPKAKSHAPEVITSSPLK
Data set [2] can be described thus: Plasma clearance in rats. Format: ADME, organism-based. As to conditions: rat.
Data set [3] is described as follows: Oral bioavailability in rat. Format: ADME, organism-based. The note with it: in vivo.
Data set [4] in a line: Volume distribution in rats. The note with it: rat, in vivo; read-out: Vz. Type of data set: ADME, organism-based.
Data set [5] is described as follows: Half life in rats in hours. Format: ADME, organism-based. The note with it: rat, in vivo.
The target in data set [6] is T1, Coagulation factor X. Nature of the data set: Binding affinity towards Coagulation factor X.
The species entered for data set [7] is Oryctolagus cuniculus. The data set can be described thus: Antithrombotic activity was evaluated by using rabbit PT assay. Type of data set: functional.
The nature of data set [8]: Oral bioavailability in ratrs. Type of data set: ADME, organism-based. The note with it: rat, in vivo.
Data set [9] addresses Serine protease 1 (Homo sapiens, UniProt P07477). The data set can be described thus: Concentration required for inhibition of trypsin.
Data set [10] concerns the target Prothrombin (Homo sapiens, UniProt P00734). Nature of the data set: Concentration required for inhibition of Coagulation factor II.
Data set [11] can be described thus: Plasma clearance in dogs. Type of data set: ADME, organism-based, Canis lupus familiaris. The note with it: dog.
Data set [12] is described as follows: Volume distribution in dogs. Format: ADME, organism-based, Canis lupus familiaris. The note with it: dog, in vivo; read-out: Vz.
Data set [13] is described as follows: Oral bioavailability in dog. Type of data set: ADME, organism-based, Canis lupus familiaris. As to conditions: in vivo.
A short description of data set [14]: Half life in dogs in hours. As to conditions: dog, in vivo. Type of data set: ADME, organism-based, Canis lupus familiaris.

Chain of Serine protease 1 (P07477 whole entry): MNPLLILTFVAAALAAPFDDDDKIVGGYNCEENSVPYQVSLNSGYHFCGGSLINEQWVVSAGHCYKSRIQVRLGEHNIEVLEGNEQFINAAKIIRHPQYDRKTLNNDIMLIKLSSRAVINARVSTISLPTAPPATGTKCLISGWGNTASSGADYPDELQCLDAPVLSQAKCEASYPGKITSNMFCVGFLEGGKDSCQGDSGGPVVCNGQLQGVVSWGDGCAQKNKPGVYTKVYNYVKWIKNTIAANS

As to `COc1ccc(/C(C)=C(/F)C(=O)Nc2ccc(-c3ccccc3S(N)(=O)=O)cc2)c(C#N)c1`, the IC50 in data set [1] came out at 5700 nM.
`C/C(=C(\F)C(=O)Nc1ccc(-c2ccccc2S(N)(=O)=O)cn1)c1ccc2ccnc(N)c2c1` showed a clearance in [2] of 19.1 mL/min/kg. This molecule also yielded a bioavailability in data set [3] of 13%. The Vd in [4] is 2.7 L/kg. In data set [1], this molecule registered an IC50 of 14 nM. In [5], this molecule had a half-life of 1.64 h.
The molecule `C/C(=C(\F)C(=O)Nc1ccc(-c2ccccc2C#N)cc1)c1ccc2ccnc(N)c2c1` displayed an IC50 in [1] of 190 nM.
Still for that read-out and setting: in the case of `C/C(=C(\F)C(=O)Nc1ccc(-c2ccccc2S(N)(=O)=O)cc1)c1cc(N)ccc1[N+](=O)[O-]` it was 250 nM.
For `C/C(=C(\F)C(=O)Nc1ccc(-c2ccccc2S(N)(=O)=O)cc1)c1cccc(C(N)=O)c1`, the IC50 in data set [1] was determined as 920 nM.
Same read-out and setting: the figure for `C/C(=C(/F)C(=O)Nc1ccc(-c2ccccc2S(N)(=O)=O)cc1)c1ccc2nc(N)nc(N)c2c1` is above 11000 nM; for `C/C(=C(\F)C(=O)Nc1ccc(-c2ccncc2S(C)(=O)=O)cc1)c1ccc2ccnc(N)c2c1` it is 7 nM.
`C/C(=C(/F)C(=O)Nc1ccc(-c2ccccc2S(N)(=O)=O)cc1)c1ccc2ccnc(N)c2c1` displayed an IC50 in data set [1] of 880 nM.
In data set [6], `C/C(=C(\F)C(=O)Nc1ccc(-c2ccccc2S(N)(=O)=O)cc1Cl)c1ccc2ccnc(N)c2c1` yielded a Ki of 1.1 nM. The Activity in data set [7] came out at 9.4 µM. In [8], this molecule registered a bioavailability of 35.1%. Further, in data set [2], the clearance turned out to be 6.7 mL/min/kg. The IC50 in [9] is above 11000 nM; in [1] it was 11 nM; in [10] it was 5400 nM. Also, the Vd in data set [4] is 0.8 L/kg. Moreover, in data set [5], the half-life is 1.43 h.
`C/C(=C(\F)C(=O)Nc1ccc(-c2ccccc2S(N)(=O)=O)cc1)c1cccc(NN)c1`: the IC50 in data set [1] is above 11000 nM.
The molecule `C/C(Cc1ccc(Br)cc1)=C(\F)C(=O)Nc1ccc(-c2ccccc2S(N)(=O)=O)cc1` displayed an IC50 in [1] of 1800 nM.
Regarding `C/C(=C(/F)C(=O)Nc1ccc(-c2ccccc2S(N)(=O)=O)cc1)c1ccc2ncnc(N)c2c1`, the midpoint of inhibition in [1], the IC50, lay at 270 nM.
The same measure, in the same setting: the figure for `C/C(=C(\F)C(=O)Nc1ccc(-c2ccccc2S(N)(=O)=O)cc1)c1cc(Cl)ccc1C#N` is 9500 nM; for `C/C(=C(\F)C(=O)Nc1ccc(-c2ccccc2S(N)(=O)=O)cc1)c1cccc(N)c1` it is above 11000 nM.
As to `C/C(=C(\F)C(=O)Nc1ccc(-c2ccnc(C(N)=O)c2)cc1)c1ccc2ccnc(N)c2c1`, the IC50 in data set [1] was 180 nM.
Take `C/C(=C(\F)C(=O)Nc1ccc(-c2ccccc2S(N)(=O)=O)cc1Br)c1ccc2ccnc(N)c2c1`: the clearance in [11] amounted to 10.8 mL/min/kg; in data set [2], 4.4 mL/min/kg. This molecule gave a Ki in data set [6] of 1.3 nM. In data set [7], this molecule yielded an Activity of 10.3 µM. Also, the results for the Vd in [12] and in data set [4] were 5.5 L/kg and 0.61 L/kg, respectively. Moreover, the values for the bioavailability in [13] and in data set [3] were 33.1% and 30.1%, respectively. Besides, the IC50 in data set [9] worked out at 2400 nM; in [1] it was 7 nM; in data set [10] it was 4800 nM. The half-life is 1.6 h in data set [5] and 6 h in data set [14].
In [2], `Nc1nccc2ccc(/C=C\C(=O)Nc3ccc(-c4ccccc4S(N)(=O)=O)cc3)cc12` had a clearance of 56.4 mL/min/kg. Besides, in [3], the bioavailability was found to be 1.5%. For the same molecule, the Vd in [4] was 7.4 L/kg. This molecule also came in with an IC50 in data set [1] of 78 nM. In data set [5], this molecule gave a half-life of 1.51 h.
For the molecule `C/C(=C(\F)C(=O)Nc1ccc(-c2ccccc2S(N)(=O)=O)cc1Br)c1cc(Br)ccc1N`, the IC50 in data set [1] is above 11000 nM.
In [1], `C/C(=C(\F)C(=O)Nc1ccc(-c2ccccc2S(N)(=O)=O)cc1Br)c1cc(Br)ccc1[N+](=O)[O-]` came in with an IC50 of 2900 nM.
Still for that read-out and setting: in the case of `C/C(=C(\F)C(=O)Nc1ccc(-c2ccccc2S(N)(=O)=O)cc1F)c1cccc(C(=N)S)c1` it was 140 nM.
Consider `C/C(=C(\F)C(=O)Nc1ccc(-c2ccccc2S(N)(=O)=O)cc1)c1ccc2ccnc(N)c2c1`, for which the clearance in data set [11] was 11.4 mL/min/kg; in data set [2] it was 48.7 mL/min/kg. Further, the results for the Vd in data set [12] and in data set [4] were 6.8 L/kg and 10 L/kg, respectively. In addition, the figures for the bioavailability in data set [13] and in data set [3] were 36.7% and 6.8%, respectively. In [1], this molecule returned an IC50 of 14 nM. Also, the half-life in data set [5] is 2.38 h; in data set [14], 7.1 h.
Regarding `C/C(=C(\F)C(=O)Nc1ccc(-c2ccncc2[S+](C)[O-])cc1F)c1ccc2ccnc(N)c2c1` (configuration not stated), the IC50 in data set [1] was 1500 nM.
For `C/C(=C(\F)C(=O)Nc1ccc(-c2ccccc2S(N)(=O)=O)cc1F)c1ccc2ccnc(N)c2c1`, in data set [6], the affinity, expressed as Ki, was 1.6 nM. This molecule came in with an Activity in data set [7] of 6.3 µM. In addition, the clearance in data set [2] was 25.3 mL/min/kg. Also, the IC50 in data set [9] was found to be 9700 nM; in data set [1], 5 nM; in [10] it was 6300 nM. In addition, the bioavailability in [3] was 13.5%. Besides, the Vd in data set [4] was determined as 3.7 L/kg. Besides, the half-life in data set [5] is 1.7 h.
